Laboratory results from patent US20260317344A1, “EGFR INHIBITORS FOR TREATING DISEASE” (BLOSSOMHILL THERAPEUTICS, INC., priority 2023, published 2026).

Assays:
EGFR (L858R) = EGFR (L858R) (Homo sapiens, UniProt P00533, L858R); assay: HotSpot radiometric kinase assay, inhibition of EGFR L858R mutant; format: biochemical; conditions: 33P ATP, room temperature, 120 m
Summary of the method: (§1)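 Kinase/substrate pairs in 20 mM HEPES pH 7.5, 10 mM MgCl2, 1 mM EGTA, 0.02% Brij35, 0.02 mg/ml BSA, 0.1 mM Na3VO4, 2 mM DTT, 1% DMSO were preincubated ~20 min with compound. ATP plus 33P-ATP (10 µM final) was added for 120 min at room temperature, and P81 filter binding gave IC50 values.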

[1] = target: T1, pEGFR, PC-9 cells (d746-750 EGFR) (Homo sapiens, UniProt P00533, DEL746-750); assay: Cellular EGFR phosphorylation assay (LANCE Ultra TR-FRET) in PC-9 cells; format: cell-based; conditions: 4 hours at 37° C., read-out: PC-9 pEGFR IC50
T1 construct: pEGFR (Tyr1068) TR-FRET
T1 sequence (P00533 with tags, fused parts or gaps DEL746-750): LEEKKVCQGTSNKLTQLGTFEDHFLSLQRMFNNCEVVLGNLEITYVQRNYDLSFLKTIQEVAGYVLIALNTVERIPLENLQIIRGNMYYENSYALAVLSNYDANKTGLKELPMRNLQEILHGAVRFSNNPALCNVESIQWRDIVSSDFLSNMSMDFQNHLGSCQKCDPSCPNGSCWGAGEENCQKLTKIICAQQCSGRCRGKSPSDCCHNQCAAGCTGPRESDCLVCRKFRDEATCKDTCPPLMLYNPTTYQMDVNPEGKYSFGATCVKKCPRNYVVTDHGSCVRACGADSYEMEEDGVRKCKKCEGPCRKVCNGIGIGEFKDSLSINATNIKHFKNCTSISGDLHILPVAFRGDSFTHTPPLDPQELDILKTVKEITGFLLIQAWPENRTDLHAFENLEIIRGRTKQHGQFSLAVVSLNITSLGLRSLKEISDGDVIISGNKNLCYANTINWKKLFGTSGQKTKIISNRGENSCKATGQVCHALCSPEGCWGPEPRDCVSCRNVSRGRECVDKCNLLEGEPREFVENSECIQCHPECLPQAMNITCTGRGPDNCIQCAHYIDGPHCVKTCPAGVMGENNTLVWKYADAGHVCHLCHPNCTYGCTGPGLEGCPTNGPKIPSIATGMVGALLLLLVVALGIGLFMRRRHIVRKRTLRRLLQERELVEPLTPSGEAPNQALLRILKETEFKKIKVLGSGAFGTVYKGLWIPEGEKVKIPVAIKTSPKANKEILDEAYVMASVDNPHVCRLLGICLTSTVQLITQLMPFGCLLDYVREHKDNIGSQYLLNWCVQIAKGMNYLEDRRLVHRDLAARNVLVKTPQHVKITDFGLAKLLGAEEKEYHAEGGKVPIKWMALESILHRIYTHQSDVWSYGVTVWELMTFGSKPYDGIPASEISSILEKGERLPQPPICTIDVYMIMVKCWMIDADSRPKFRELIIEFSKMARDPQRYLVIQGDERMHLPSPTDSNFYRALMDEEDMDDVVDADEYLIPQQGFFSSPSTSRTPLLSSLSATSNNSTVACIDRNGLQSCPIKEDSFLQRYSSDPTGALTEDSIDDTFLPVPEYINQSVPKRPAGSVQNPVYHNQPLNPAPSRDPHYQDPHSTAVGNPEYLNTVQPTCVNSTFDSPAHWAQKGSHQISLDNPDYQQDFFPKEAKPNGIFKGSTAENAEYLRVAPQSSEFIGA
Summary of the method: (§2)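 PC-9 and NCI-H1975 cells (50 thousand/well) or A431 cells (30 thousand/well) treated next day for 4 h at 37° C with a 9-dose 3-fold titration; A431 stimulated with 40 ng/mL EGF for the final 10 min. Lysate phospho-EGFR (Tyr1068) read by LANCE Ultra TR-FRET; IC50 derived.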

[2] = tested on: BaF3 cells with engineered EGFR L858R/T790M/C797S; assay: 3-Day CellTiter Glo (CTG) cell proliferation assay, BaF3 EGFR L858R/T790M/C797S; format: cell-based; conditions: Mus musculus, 3-day CTG proliferation, 72 hours
Summary of the method: (§3)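 Growth inhibition in transgene-bearing BaF3 lines was scored after three days of compound treatment by CellTiter-Glo 2.0 ATP luminescence, yielding IC50 values.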

NCI-H1975 cells = assay: 5-Day CellTiter Glo (CTG) cell proliferation assay, NCI-H1975; format: cell-based; conditions: Homo sapiens; NCI-H1975 cells (L858R/T790M EGFR), 5-day CTG proliferation, 120 hours; read-out: H1975 IC50
Summary of the method: (§4)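 Luminescent ATP signal (CellTiter-Glo 2.0) after 120 hours of compound exposure gave IC50 values. PC-9 and HCC827 harbour EGFR d746-750; NCI-H1975 harbours L858R/T790M.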

EGFR (D746-750/C797S) = EGFR (D746-750/C797S) (Homo sapiens, UniProt P00533, C797S/DEL746-750); assay: HotSpot radiometric kinase assay, inhibition of EGFR 746-750/C797S mutant; format: biochemical; conditions: 33P ATP, room temperature, 120 m
Summary of the method: (§5)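 Kinase/substrate pairs in 20 mM HEPES pH 7.5, 10 mM MgCl2, 1 mM EGTA, 0.02% Brij35, 0.02 mg/ml BSA, 0.1 mM Na3VO4, 2 mM DTT, 1% DMSO, preincubated ~20 min with compound. Reaction started with ATP/33P-ATP ([…]), run 120 min at room temperature; phosphorylation read by P81 filter binding, IC50 from curve fits.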

EGFR (L858R/T790M) = EGFR (L858R/T790M) (Homo sapiens, UniProt P00533, L858R/T790M); assay: HotSpot radiometric kinase assay, inhibition of EGFR L858R/T790M mutant; format: biochemical; conditions: 33P ATP, room temperature, 120 m
Summary of the method: as §5

[3] = target: T2, pEGFR, NCI-H1975 cells (L858R/T790M EGFR) (Homo sapiens, UniProt P00533, L858R/T790M); assay: Cellular EGFR phosphorylation assay (LANCE Ultra TR-FRET) in NCI-H1975 cells; format: cell-based; conditions: 4 hours at 37° C., read-out: H1975 pEGFR IC50
T2 construct: pEGFR (Tyr1068) TR-FRET
Summary of the method: as §2

EGFR (D746-750) = EGFR (D746-750) (Homo sapiens, UniProt P00533, DEL746-750); assay: HotSpot radiometric kinase assay, inhibition of EGFR 746-750 mutant; format: biochemical; conditions: 33P ATP, room temperature, 120 m
Chain of EGFR (D746-750) (P00533 with tags, fused parts or gaps DEL746-750): as above
Summary of the method: as §5

EGFR (L858R/T790M/C797S) = EGFR (L858R/T790M/C797S) (Homo sapiens, UniProt P00533, C797S/L858R/T790M); assay: HotSpot radiometric kinase assay, inhibition of EGFR L858R/T790M/C797S mutant; format: biochemical; conditions: 33P ATP, room temperature, 120 m
Summary of the method: as §5

PC-9 cells = assay: 5-Day CellTiter Glo (CTG) cell proliferation assay, PC-9; format: cell-based; conditions: Homo sapiens; PC-9 cells (d746-750 EGFR), 5-day CTG proliferation, 120 hours; read-out: PC-9 IC50
Summary of the method: as §4

[4] = tested on: BaF3 cells with engineered EGFR L858R/C797S; assay: 3-Day CellTiter Glo (CTG) cell proliferation assay, BaF3 EGFR L858R/C797S; format: cell-based; conditions: Mus musculus, 3-day CTG proliferation, 72 hours
Summary of the method: as §3

EGFR WT = EGFR WT (Homo sapiens, UniProt P00533); assay: HotSpot radiometric kinase assay, inhibition of EGFR WT; format: biochemical; conditions: 33P ATP, room temperature, 120 m
Chain of EGFR WT (P00533 25-1210): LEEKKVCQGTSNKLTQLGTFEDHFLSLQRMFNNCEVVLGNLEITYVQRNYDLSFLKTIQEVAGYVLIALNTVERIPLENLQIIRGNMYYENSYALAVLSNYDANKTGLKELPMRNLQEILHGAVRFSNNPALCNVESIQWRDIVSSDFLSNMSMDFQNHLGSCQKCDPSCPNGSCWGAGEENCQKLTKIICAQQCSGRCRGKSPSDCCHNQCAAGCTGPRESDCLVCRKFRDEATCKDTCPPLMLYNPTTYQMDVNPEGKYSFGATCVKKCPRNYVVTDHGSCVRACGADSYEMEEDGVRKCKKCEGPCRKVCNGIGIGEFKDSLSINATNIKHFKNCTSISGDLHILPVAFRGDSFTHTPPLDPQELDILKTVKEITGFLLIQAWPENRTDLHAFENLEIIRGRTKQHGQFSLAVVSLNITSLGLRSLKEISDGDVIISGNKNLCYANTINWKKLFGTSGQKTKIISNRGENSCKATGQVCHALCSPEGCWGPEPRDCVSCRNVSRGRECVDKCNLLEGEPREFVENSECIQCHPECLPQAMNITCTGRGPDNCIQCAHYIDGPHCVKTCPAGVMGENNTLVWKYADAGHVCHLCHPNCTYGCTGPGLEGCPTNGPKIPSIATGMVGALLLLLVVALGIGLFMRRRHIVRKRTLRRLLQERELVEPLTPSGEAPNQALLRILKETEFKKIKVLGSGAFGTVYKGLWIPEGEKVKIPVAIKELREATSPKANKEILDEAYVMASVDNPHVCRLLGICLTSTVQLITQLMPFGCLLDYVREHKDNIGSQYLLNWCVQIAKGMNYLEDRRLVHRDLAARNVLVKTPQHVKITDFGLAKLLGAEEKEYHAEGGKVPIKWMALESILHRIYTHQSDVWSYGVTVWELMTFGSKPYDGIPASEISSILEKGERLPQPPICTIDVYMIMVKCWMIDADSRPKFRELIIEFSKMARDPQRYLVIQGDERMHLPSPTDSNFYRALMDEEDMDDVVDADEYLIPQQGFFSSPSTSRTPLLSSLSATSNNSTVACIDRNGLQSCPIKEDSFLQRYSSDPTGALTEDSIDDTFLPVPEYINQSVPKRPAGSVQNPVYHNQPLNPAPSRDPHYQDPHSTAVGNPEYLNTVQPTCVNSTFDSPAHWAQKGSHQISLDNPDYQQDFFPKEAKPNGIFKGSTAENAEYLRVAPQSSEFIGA
Summary of the method: as §1

HCC827 cells = assay: 5-Day CellTiter Glo (CTG) cell proliferation assay, HCC827; format: cell-based; conditions: Homo sapiens; HCC827 cells (d746-750 EGFR), 5-day CTG proliferation, 120 hours; read-out: HCC827 IC50
Summary of the method: as §4

EGFR (D770_N771insNPG) = EGFR (D770_N771insNPG) (Homo sapiens, UniProt P00533, INS770NPG); assay: HotSpot radiometric kinase assay, inhibition of EGFR (D770_N771insNPG) mutant; format: biochemical; conditions: 33P ATP, room temperature, 120 m
Summary of the method: as §5

[5] = target: T3, pEGFR, A431 cells (wildtype EGFR) (Homo sapiens, UniProt P00533); assay: Cellular EGFR phosphorylation assay (LANCE Ultra TR-FRET) in A431 cells; format: cell-based; conditions: 4 hours at 37° C., 40 ng/mL EGF for the final 10 minutes, read-out: A431 pEGFR IC50
T3 construct: pEGFR (Tyr1068) TR-FRET
T3 sequence (P00533 25-1210): as above
Summary of the method: as §2

[6] = tested on: BaF3 cells with engineered EGFR d746-750/T790M; assay: 3-Day CellTiter Glo (CTG) cell proliferation assay, BaF3 EGFR d746-750/T790M; format: cell-based; conditions: Mus musculus; BaF3 EGFR d746-750/T790M cells, 3-day CTG proliferation, 72 hours
Summary of the method: as §3

IC50 (EGFR (L858R)) [nM]	IC50 [1] [nM]	IC50 [2] [nM]	IC50 (NCI-H1975 cells) [nM]	IC50 (EGFR (D746-750/C797S)) [nM]	IC50 (EGFR (L858R/T790M)) [nM]	IC50 [3] [nM]	IC50 (EGFR (D746-750)) [nM]	IC50 (EGFR (L858R/T790M/C797S)) [nM]	IC50 (PC-9 cells) [nM]	IC50 [4] [nM]	IC50 (EGFR WT) [nM]	IC50 (HCC827 cells) [nM]	IC50 (EGFR (D770_N771insNPG)) [nM]	IC50 [5] [nM]	IC50 [6] [nM]	Structure (SMILES)
2.39	1.6	1.16	1.11	1.97	1.44	3.4	0.73	0.93	0.44	0.11	0.8	0.27	0.9	12.2	0.66	CCOc1nn([C@@H](C)CO)c2c1/C=C/c1n[nH]c3cnc(cc13)-c1c(C)nn(C)c1O[C@@H](C)CN(CC)C2 [Ex. 26, (2S)-2-[(10S,17E)-16-ethoxy-12-ethyl-6,8,10-trimethyl-2,8,10,11,12,13-hexahydro-14H-5,3-(azenometheno)tripyrazolo[3,4-f:3′,4′-j:4″,3″-n][1,4]oxazacyclopentadecin-14-yl]propan-1-ol]
0.89	0.91	0.73	0.97	0.9	0.51	1.85	0.28	0.45	0.45	0.07	0.31	0.26	0.27	12.5	0.55	CCOc1nn([C@@H](C)CO)c2c1/C=C/c1n[nH]c3cnc(cc13)-c1c(C)nn(C)c1O[C@@H](C)CN(C)C2 [Ex. 27, (2S)-2-[(10S,17E)-16-ethoxy-6,8,10,12-tetramethyl-2,8,10,11,12,13-hexahydro-14H-5,3-(azenometheno)tripyrazolo[3,4-f:3′,4′-j:4″,3″-n][1,4]oxazacyclopentadecin-14-yl]propan-1-ol]
1.99	14.4	1.71	33	0.85	0.46	3	0.37	0.41	16.8	2.47	1.03	2.33	1.23	52.8	1.16	CCOc1nn(CCO)c2c1/C=C/c1n[nH]c3c(C)nc(cc13)-c1cnn(C)c1O[C@@H](C)CN(CC)C2 [Ex. 28, 2-[(10S,17E)-16-ethoxy-12-ethyl-8,10,20-trimethyl-2,8,10,11,12,13-hexahydro-14H-5,3-(azenometheno)tripyrazolo[3,4-f:3′,4′-j:4″,3″-n][1,4]oxazacyclopentadecin-14-yl]ethan-1-ol]
0.72	3.63	0.74	1.04	0.65	0.3	0.93	0.2	0.3	11.4	0.17	0.22	1.12	0.29	13.7	0.9	CCOc1nn(CCO)c2c1/C=C/c1n[nH]c3c(C)nc(cc13)-c1cnn(C)c1O[C@@H](C)CN(C)C2 [Ex. 29, 2-[(10S,17E)-16-ethoxy-8,10,12,20-tetramethyl-2,8,10,11,12,13-hexahydro-14H-5,3-(azenometheno)tripyrazolo[3,4-f:3′,4′-j:4″,3″-30n][1,4]oxazacyclopentadecin-14-yl]ethan-1-ol]
0.2	1.13	0.62	1.77	0.27	0.32	1.06	0.43	0.28	1.8	0.07	0.18	0.57	0.2	15.2	1.5	CCOc1nn(CCO)c2c1/C=C/c1n[nH]c3c(C)nc(cc13)-c1c(C)nn(C)c1O[C@@H](C)CN(C)C2 [Ex. 47, 2-[(10S,17E)-16-ethoxy-6,8,10,12,20-pentamethyl-2,8,10,11,12,13-hexahydro-14H-5,3-(azenometheno)tripyrazolo[3,4-f:3′,4′-j:4″,3″-n][1,4]oxazacyclopentadecin-14-yl]ethan-1-ol]
0.32	0.67	0.55	0.99	0.48	1.04	0.94	0.67	0.65	0.78	0.06	0.38	0.41	0.55	10.7	0.55	CCOc1nn([C@@H](C)CO)c2c1/C=C/c1n[nH]c3c(C)nc(cc13)-c1c(C)nn(C)c1O[C@@H](C)CN(C)C2 [Ex. 54, (2S)-2-[(10S,17E)-16-ethoxy-6,8,10,12,20-pentamethyl-2,8,10,11,12,13-hexahydro-14H-5,3-(azenometheno)tripyrazolo[3,4-f:3′,4′-j:4″,3″-n][1,4]oxazacyclopentadecin-14-yl]propan-1-ol]
0.36	1.12	0.71	1.07	0.56	0.5	1.76	0.46	0.25	0.47	0.07	0.09	0.31	0.18	1.42	0.61	CCOc1nn([C@@H](C)CO)c2c1/C=C/c1n[nH]c3cnc(cc13)-c1c(C)nn(C)c1O[C@@H](C)CN(C1CC1)C2 [Ex. 110, (2S)-2-[(10S,17E)-12-cyclopropyl-16-ethoxy-6,8,10-trimethyl-2,8,10,11,12,13-hexahydro-14H-5,3-(azenometheno)tripyrazolo[3,4-f:3′,4′-j:4″,3″-n][1,4]oxazacyclopentadecin-14-yl]propan-1-ol]
0.15	0.64	0.69	0.95	0.21	0.16	1.54	0.21	0.13	0.7	0.06	0.05	0.34	0.1	6.08	0.57	CCOc1nn([C@@H](C)CO)c2c1/C=C/c1n[nH]c3c(C)nc(cc13)-c1c(C)nn(C)c1O[C@H](C)[C@H]1CCCN1C2 [Ex. 180, (2S)-2-[(8aR,9R,19E)-1-ethoxy-9,11,13,21-tetramethyl-7,8,8a,9,11,17-hexahydro-6H-14,16-(azenometheno)tripyrazolo[3,4-f:3′,4′-j:4″,3″-n]pyrrolo[2,1-c][1,4]oxazacyclopentadecin-3(4H)-yl]propan-1-ol]
